# Assay results published in ChEMBL document CHEMBL1201862, “PubChem BioAssay data set” (2004).
#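 Five concentrations, 48 hours, 96-well plates. At the GI50, growth is halved.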 The source made the active and inactive calls. No stated cut-off is given here; in the data, active = GI50 up to about 1.1 µM and inactive = higher.
# How the values were obtained:
# Assay in all cases: DTP human tumour cell line panel, 48 h
# [1] = test system: SF-539
# [2] = test system: MDA-MB-231
# [3] = test system: IGROV-1
# [4] = test system: SR
# [5] = test system: Hs-578T
# [6] = test system: Malme-3M
# [7] = test system: T47D
# [8] = test system: MCF7
# [9] = test system: NCI-H23
# [10] = test system: OVCAR-8
# [11] = test system: SK-MEL-2
# [12] = test system: PC-3
# [13] = test system: DU-145
# [14] = test system: SNB-78
# [15] = test system: KM-20L2
# [16] = test system: M19-MEL
# [17] = test system: HOP-18
# [18] = test system: DMS-114
# [19] = test system: DMS-273
# [20] = test system: XF498
Compound,GI50 [1],GI50 [2],GI50 [3],GI50 [4],GI50 [5],GI50 [6],GI50 [7],GI50 [8],GI50 [9],GI50 [10],GI50 [11],GI50 [12],GI50 [13],GI50 [14],GI50 [15],GI50 [16],GI50 [17],GI50 [18],GI50 [19],GI50 [20]
CC(C)(C)OC(=O)NC(Cc1c[nH]cn1)C(=O)N1CCCC1C(N)=O (stereo not drawn),> 100 µM (inactive),> 100 µM (inactive),> 100 µM (inactive),> 100 µM (inactive),> 100 µM (inactive),> 100 µM (inactive),> 100 µM (inactive),> 100 µM (inactive),> 100 µM (inactive),> 100 µM (inactive),> 100 µM (inactive),> 100 µM (inactive),> 100 µM (inactive),,,,,,,
O=C(Nc1cccc2ccccc12)Oc1ccccc1C1CCCCC1,17.5 µM (inactive),,23 µM (inactive),17.5 µM (inactive),,17.7 µM (inactive),,,17.9 µM (inactive),15.9 µM (inactive),18.2 µM (inactive),,,23.4 µM (inactive),20.9 µM (inactive),22.3 µM (inactive),16.3 µM (inactive),19.9 µM (inactive),21.2 µM (inactive),
CNC(=O)N(C)COC,> 100 µM (inactive),,> 100 µM (inactive),> 100 µM (inactive),,> 100 µM (inactive),,,,> 100 µM (inactive),> 100 µM (inactive),,,> 100 µM (inactive),> 100 µM (inactive),> 100 µM (inactive),> 100 µM (inactive),> 100 µM (inactive),,> 100 µM (inactive)
C=CCNC(=O)CN(CC(=O)OC)C1CCCCC1N(CC(=O)OC)CC(=O)OC (stereo not drawn),> 100 µM (inactive),> 100 µM (inactive),> 100 µM (inactive),,> 100 µM (inactive),> 100 µM (inactive),> 100 µM (inactive),> 100 µM (inactive),> 100 µM (inactive),> 100 µM (inactive),> 100 µM (inactive),> 100 µM (inactive),> 100 µM (inactive),,,,,,,
C#CC[N+](CCO)(CCO)CCCCCCCCCCCCCCCCCC,11.4 µM (inactive),,2.18 µM (inactive),,,18.4 µM (inactive),,14.8 µM (inactive),13.8 µM (inactive),16.1 µM (inactive),16.4 µM (inactive),,,6.53 µM (inactive),7.1 µM (inactive),9.16 µM (inactive),9.33 µM (inactive),10.3 µM (inactive),4.9 µM (inactive),4.43 µM (inactive)
CC(=O)O[C@@H]1CN(S(=O)(=O)c2ccc(C)cc2)C[C@@H]1C1CCCCC1,< 0.01 µM (active),,17.3 µM (inactive),23.4 µM (inactive),11.5 µM (inactive),,31.8 µM (inactive),19.4 µM (inactive),38.5 µM (inactive),24.8 µM (inactive),17 µM (inactive),18.3 µM (inactive),30.8 µM (inactive),,,,,,,
O=c1c2cccnc2oc2c(Cl)cc(-c3nnn[nH]3)cc12,> 100 µM (inactive),> 100 µM (inactive),> 100 µM (inactive),> 100 µM (inactive),> 100 µM (inactive),> 100 µM (inactive),> 100 µM (inactive),,> 100 µM (inactive),> 100 µM (inactive),> 100 µM (inactive),> 100 µM (inactive),> 100 µM (inactive),,,,,,,
O=C1C(Cl)N(c2ccccc2Cl)C1c1c[nH]c2ccccc12 (stereo not drawn),> 100 µM (inactive),,> 100 µM (inactive),> 100 µM (inactive),,> 100 µM (inactive),,,> 100 µM (inactive),> 100 µM (inactive),> 100 µM (inactive),,,,> 100 µM (inactive),> 100 µM (inactive),,> 100 µM (inactive),,> 100 µM (inactive)
CC(=O)OC1C(O)C(C)OC(OC(=O)C2CCC3C(C2)OC2(CC(OC(=O)/C=C/c4ccccc4)C(C)CO2)C32CO2)C1OC1OC(C)C(O)C(O)C1O (stereo not drawn),0.0448 µM (active),,0.0378 µM (active),,,0.0378 µM (active),,0.0325 µM (active),0.0467 µM (active),0.0789 µM (active),0.0325 µM (active),,,0.0352 µM (active),0.0425 µM (active),0.0332 µM (active),0.113 µM (active),0.0371 µM (active),0.0416 µM (active),0.0504 µM (active)
CC(C)CNC1=NCC(C)S1 (stereo not drawn),> 100 µM (inactive),> 100 µM (inactive),> 100 µM (inactive),> 100 µM (inactive),> 100 µM (inactive),> 100 µM (inactive),> 100 µM (inactive),> 100 µM (inactive),> 100 µM (inactive),,> 100 µM (inactive),> 100 µM (inactive),> 100 µM (inactive),,,,,,,
CC(C)(C)OC(=O)NC1CCC(C(C)(C)C)CC1 (stereo not drawn),> 100 µM (inactive),,> 100 µM (inactive),,,33.2 µM (inactive),,44.5 µM (inactive),> 83 µM (inactive),> 89.7 µM (inactive),23.3 µM (inactive),,,> 100 µM (inactive),37.9 µM (inactive),31.3 µM (inactive),> 82.8 µM (inactive),34 µM (inactive),> 51.2 µM (inactive),> 52.2 µM (inactive)
O=C(O)CN1CCN(CC(=O)O)CCN(CC(=O)O)CC1,> 25.3 µM (inactive),> 31.9 µM (inactive),4.85 µM (inactive),3.27 µM (inactive),> 100 µM (inactive),> 28.7 µM (inactive),> 100 µM (inactive),5.65 µM (inactive),28.6 µM (inactive),4.07 µM (inactive),> 43.3 µM (inactive),> 28.5 µM (inactive),> 100 µM (inactive),,,,,,,
C=C(/C=C/C=C(\C)CCC=C(C)C)[C@@H]1CC[C@]2([C@H](CCCO)/C(=C(/C)C=O)CC[C@]2(C)O)[C@@H]1O,12.6 µM (inactive),,32.2 µM (inactive),18.8 µM (inactive),,11.8 µM (inactive),,,19.5 µM (inactive),20.6 µM (inactive),20.2 µM (inactive),,,17.7 µM (inactive),29.3 µM (inactive),> 10 µM (inactive),23.9 µM (inactive),,14.6 µM (inactive),18.7 µM (inactive)
CO[C@H]1ON=C(c2c(C)cc(C)cc2C)[C@@H]1C1(c2ccccc2)ON=C(c2c(C)cc(C)cc2C)O1 (stereo partly drawn),> 100 µM (inactive),,> 100 µM (inactive),> 100 µM (inactive),,> 100 µM (inactive),,,> 100 µM (inactive),> 100 µM (inactive),> 100 µM (inactive),,,> 100 µM (inactive),> 100 µM (inactive),> 100 µM (inactive),> 100 µM (inactive),,> 100 µM (inactive),
CC1OC(CO)(n2cnc3c(N)ncnc32)C(O)C1O (stereo not drawn),> 100 µM (inactive),,> 100 µM (inactive),,,> 100 µM (inactive),,> 100 µM (inactive),> 100 µM (inactive),> 100 µM (inactive),> 100 µM (inactive),,,> 100 µM (inactive),> 100 µM (inactive),> 100 µM (inactive),> 100 µM (inactive),> 100 µM (inactive),> 100 µM (inactive),> 100 µM (inactive)
Cc1cn(Cc2cn(CC3OC(n4cc(C)c(=O)[nH]c4=O)CC3O)nn2)c(=O)[nH]c1=O (stereo not drawn),> 100 µM (inactive),> 100 µM (inactive),,,> 100 µM (inactive),> 100 µM (inactive),> 100 µM (inactive),> 100 µM (inactive),> 100 µM (inactive),> 100 µM (inactive),> 100 µM (inactive),> 100 µM (inactive),> 100 µM (inactive),,,,,,,
Cn1c(=O)c2nc(N3CCCCC3)cnc2n(C)c1=O,> 100 µM (inactive),,> 100 µM (inactive),> 100 µM (inactive),,> 100 µM (inactive),,,> 100 µM (inactive),> 100 µM (inactive),,,,,> 100 µM (inactive),> 100 µM (inactive),,,,> 100 µM (inactive)
C=C1C(=O)OC2C=C(C)CC3C=C(CCC=C(C)CCC12)C(=O)O3 (stereo not drawn),84.5 µM (inactive),,48 µM (inactive),,,46.1 µM (inactive),,47.5 µM (inactive),49.3 µM (inactive),72.3 µM (inactive),53.3 µM (inactive),,,66.4 µM (inactive),52.7 µM (inactive),58.3 µM (inactive),51.3 µM (inactive),65.9 µM (inactive),68.1 µM (inactive),
